These are literature values, as cited in patent publication US20240122962A1, “PHARMACEUTICAL COMPOSITION FOR USE IN THE PREVENTION OR TREATMENT OF A CONDITION ASSOCIATED WITH A REDUCTION IN THE NUMBER OF LACTOBACILLI IN THE VAGINA” (priority 2020, published 2024).

Each structure is given as a SMILES string.

The test system of this series is bacterial vaginosis (BV). The conditions noted are these: 7-day oral treatment, after 1 month.

On to `Cc1ncc([N+](=O)[O-])n1CCO` [Metronidazole, metronidazole], for which the cure rate is 80-90%.
